The conditions of data set [1]: patients treated with Rebetol; cited from earlier work.
The test system of data set [2] is VHSV virus (Viral Hemorrhagic Septicemia Virus). Particulars: cited from earlier work.
A short description of data set [3]: in vitro. Particulars: Atlantic salmon.
The test system of data set [4] is ISA virus. Particulars: 400 μg/Kg intraperitoneal.
Data set [5] deals with ISA virus. The experiment in a line: Inhibition assay of the replicative cycle of ISAV in SHK-1 cells (real-time RT-PCR of supernatant). The data set is classed as cell-based, Infectious Salmon Anemia Virus. In general terms: Real-time PCR tracks product formation cycle by cycle.
The subject of data set [6] is RNA viruses. Particulars: regularly shown, in general; read-out: EC50 values (effective concentration 50%); cited from earlier work.
The subject of data set [7] is IPNV. The conditions noted are these: cited from earlier work.
For data set [8], the system named is ISA virus. The conditions noted are these: for hematocrit: untreated infected C3 42.1%.
The nature of data set [9]: Toxicity in healthy uninfected smolt fish (tank C2), oral medicated feed. The conditions noted are these: tank C2, dose of 1600 μg/mL (so in the source), normal 44-64%.

This is an account of results in US8859513B2, “Use of 1-beta-D-ribofuranosyl-1H-1,2,4-triazole-3-carboxamide for the treatment of infectious salmon anemia” (Laboratorio de Diagnostico Gam, S.A., priority 2010, dated 2014).

Values after ≈ are worked out from the molar mass of the structure shown. Read-outs that look alike come from different tables or passages of the source. Bounds are passed on as bounds.

Consider `NC(=O)c1ncn([C@@H]2O[C@H](CO)[C@@H](O)[C@H]2O)n1` [ribavirin, 1-beta-D-ribofuranosyl-1H-1,2,4-triazole-3-carboxamide], for which the primary toxicity entry in data set [1] was “triggers hemolytic anemia”. In addition, the RNA inhibition in data set [2] (25 μg/ml added at 0 hours post infection, at 10 hours post infection) is 99.8%. Also, in data set [2] (EPC cells, concentrations of 5, 10 and 25 μg/ml), the “inhibition of the virus” value was “strong inhibition”. This molecule also gave a CC50 at 3 days in data set [3] of more than 400 µg/mL. Further, the “condition of the analyzed organs during necropsies” value in data set [4] is on record as “slight improvement”. In addition, the “viral load over treatment days” value in [4] (heart, FIG. 17) was “downward trend”. Besides, the EC50 is approximately 0.4 µg/mL (≈ 1.64 µM) in data set [5] (Infectious salmon anemia virus, 72 h, read-out: concentration which inhibits 50% of ISA virus replication (EC50)) and not below 1000 nM in [6]. In data set [7] (400 μg), the “effect of the higher dose on rate of death” value is given as “produced no greater decrease in the rate of death”. Also, the “decrease in rate of dead fish” value in [7] (bath exposure once during two hours, increasing concentrations) is recorded as “about 5%”. Besides, the “viral load in dead fish” value in data set [8] (highest dose (T1) compared with T2 and untreated C3, FIG. 8) is reported as “significantly lower”. Also, the “viral load in intraperitoneally infected fish” value in data set [8] (highest dose (T1), FIG. 9) is on record as “lower”. In addition, the signs at necropsy entry in data set [8] (infected treated fish of tanks T1 and T2, FIGS. 14 and 15) is on record as “mild inflammatory signs”. In [8] (lowest dose (T2), FIG. 9), the “viral load in intraperitoneally infected fish versus untreated (C3)” value is “practically the same”. Also, the hematocrit in [8] (tank T1, dose 800 μg/mL (so in the source)) is approximately 45%; in [8] (tank T2, dose 400 μg/mL (so in the source)), approximately 45%. For the same molecule, the “viral load versus untreated fish (C3)” value in [8] (treated fish T1 (800 μg/kg) and T2 (400 μg/kg), heart, real-time RT-PCR) was “in all cases lower than that of the untreated fish”. The molecule further showed an average hematocrit in data set [9] of 54%.
Turning to `O=C(O)C1=C[C@@H](O)[C@@H](O)[C@H](O)C1` [shikimic acid], the viral replication inhibition result in data set [5] (up to concentrations of 300 μg/ml, FIG. 2) is listed as “no viral replication inhibition”.
Regarding `CCOC(=O)C1=C[C@@H](OC(CC)CC)[C@H](NC(C)=O)[C@@H](N)C1` [oseltamivir], in [5] (concentrations as high as 300 μg/mL, FIG. 1), the “inhibition of the replication of ISA virus” value is reported as “no more than 60%”.
